Biological target: T1, recombinant human GR (Homo sapiens, UniProt P04150)
T1 construct: purchased Panvera/Invitrogen P2812 (kit P2893)
T1 sequence (P04150 1-777): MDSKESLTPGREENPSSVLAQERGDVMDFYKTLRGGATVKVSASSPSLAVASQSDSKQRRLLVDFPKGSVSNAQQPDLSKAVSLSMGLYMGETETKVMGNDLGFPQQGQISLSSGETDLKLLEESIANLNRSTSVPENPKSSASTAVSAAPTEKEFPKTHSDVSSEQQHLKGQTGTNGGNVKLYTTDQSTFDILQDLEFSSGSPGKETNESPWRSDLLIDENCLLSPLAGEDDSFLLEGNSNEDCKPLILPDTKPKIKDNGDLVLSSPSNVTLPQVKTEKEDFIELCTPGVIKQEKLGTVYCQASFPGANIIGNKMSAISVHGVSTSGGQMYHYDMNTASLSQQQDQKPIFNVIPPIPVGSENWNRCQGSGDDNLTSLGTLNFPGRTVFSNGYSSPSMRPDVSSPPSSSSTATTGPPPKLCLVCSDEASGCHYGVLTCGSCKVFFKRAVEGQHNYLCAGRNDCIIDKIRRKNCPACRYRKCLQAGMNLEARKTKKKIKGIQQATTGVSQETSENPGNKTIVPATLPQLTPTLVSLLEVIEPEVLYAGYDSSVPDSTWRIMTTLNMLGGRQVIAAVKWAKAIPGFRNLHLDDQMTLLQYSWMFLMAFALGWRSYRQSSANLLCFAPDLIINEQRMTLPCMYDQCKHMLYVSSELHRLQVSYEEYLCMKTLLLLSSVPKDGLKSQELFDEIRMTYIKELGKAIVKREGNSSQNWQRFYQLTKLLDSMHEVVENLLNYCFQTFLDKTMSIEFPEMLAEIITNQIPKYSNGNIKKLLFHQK
Assay: Human Glucocorticoid Receptor (GR) Assay, fluorescence polarization
Assay type: binding
Settings: GS Red tracer, incubated 2 h at r.t., XLfit model 205, read-out: GRhuFL_FP_v2 Mean IC50
How it was run: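 After 2 h dark incubation at r.t., polarization reported displacement of the GS Red tracer from recombinant GR, in buffer with phosphate, molybdate, EDTA, DTT and Stabilizing Peptide. Controls: dexamethasone (100%) and DMSO (0%).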

Compound | IC50
COc1c(C)cc([C@@H](Oc2ccc3c(cnn3-c3ccc(F)cc3)c2)[C@H](C)NC(=O)c2ncc(C)s2)cc1C [Example 203, N-[(1R,2S)-1-[1-(4-fluorophenyl)indazol-5-yl]oxy-1-(4-methoxy-3,5-dimethyl-phenyl)propan-2-yl]-5-methyl-1,3-thiazole-2-carboxamide] | 5.4 nM
Cc1cnc(C(=O)N[C@@H](C)[C@H](Oc2ccc3c(cnn3-c3ccc(F)cc3)c2)c2ccc(Cl)cc2)s1 [Example 204, N-[(1R,2S)-1-(4-chlorophenyl)-1-[1-(4-fluorophenyl)indazol-5-yl]oxy-propan-2-yl]-5-methyl-1,3-thiazole-2-carboxamide] | 6.7 nM
Cc1cnc(C(=O)N[C@@H](C)[C@H](Oc2ccc3c(cnn3-c3ccc(F)cc3)c2)c2cc(F)cc(Cl)c2)s1 [Example 205, N-[(1R,2S)-1-(3-chloro-5-fluoro-phenyl)-1-[1-(4-fluorophenyl)indazol-5-yl]oxy-propan-2-yl]-5-methyl-1,3-thiazole-2-carboxamide] | 6.6 nM
Cc1cnc(C(=O)N[C@@H](C)[C@H](Oc2ccc3c(cnn3-c3ccc(F)cc3)c2)c2cc(C)c(C)cc2C)s1 [Example 206, N-[(1R,2S)-1-[1-(4-fluorophenyl)indazol-5-yl]oxy-1-(2,4,5-trimethylphenyl)propan-2-yl]-5-methyl-1,3-thiazole-2-carboxamide] | 7.5 nM
Cc1cccc([C@@H](Oc2ccc3c(cnn3-c3ccc(F)cc3)c2)[C@H](C)NC(=O)c2ncc(C)s2)c1 [Example 207, N-[(1R,2S)-1-[1-(4-fluorophenyl)indazol-5-yl]oxy-1-(3-methylphenyl)propan-2-yl]-5-methyl-1,3-thiazole-2-carboxamide] | 8.8 nM
Cc1cnc(C(=O)N[C@@H](C)[C@H](Oc2ccc3c(cnn3-c3ccc(F)cc3)c2)c2ccc(C(C)(C)C)cc2)s1 [Example 208, N-[(1R,2S)-1-[1-(4-fluorophenyl)indazol-5-yl]oxy-1-(4-tert-butylphenyl)propan-2-yl]-5-methyl-1,3-thiazole-2-carboxamide] | 8.2 nM
Cc1cnc(C(=O)N[C@@H](C)[C@H](Oc2ccc3c(cnn3-c3ccc(F)cc3)c2)c2ccc3c(c2)OCO3)s1 [Example 210, N-[(1R,2S)-1-benzo[1,3]dioxol-5-yl-1-[1-(4-fluorophenyl)indazol-5-yl]oxy-propan-2-yl]-5-methyl-1,3-thiazole-2-carboxamide] | 5.2 nM
C[C@H](NC(=O)C1(C)CC1)[C@H](Oc1ccc2c(cnn2-c2ccc(F)cc2)c1)c1ccc(F)c(F)c1 [Example 212, N-[(1R,2S)-1-(3,4-difluorophenyl)-1-[1-(4-fluorophenyl)indazol-5-yl]oxy-propan-2-yl]-1-methyl-cyclopropane-1-carboxamide] | 5.2 nM
Cc1ccc([C@@H](Oc2ccc3c(cnn3-c3ccc(F)cc3)c2)[C@H](C)NC(=O)C2(C)CC2)c(C)c1 [Example 216, N-[(1R,2S)-1-(2,4-dimethylphenyl)-1-[1-(4-fluorophenyl)indazol-5-yl]oxy-propan-2-yl]-1-methyl-cyclopropane-1-carboxamide] | 4.7 nM

Now those with a lower IC50, led by results:

IC50 | Compound
4.1 nM | COc1ccccc1[C@@H](Oc1ccc2c(cnn2-c2ccc(F)cc2)c1)[C@H](C)NC(=O)c1ncc(C)s1 [Example 209, N-[(1R,2S)-1-[1-(4-fluorophenyl)indazol-5-yl]oxy-1-(2-methoxyphenyl)propan-2-yl]-5-methyl-1,3-thiazole-2-carboxamide]
3 nM | Cc1ccc([C@@H](Oc2ccc3c(cnn3-c3ccc(F)cc3)c2)[C@H](C)NC(=O)C2(C)CC2)cc1C [Example 211, N-[(1R,2S)-1-(3,4-dimethylphenyl)-1-[1-(4-fluorophenyl)indazol-5-yl]oxy-propan-2-yl]-1-methyl-cyclopropane-1-carboxamide]
4.4 nM | Cc1ccc([C@@H](Oc2ccc3c(cnn3-c3ccc(F)cc3)c2)[C@H](C)NC(=O)C2(C)CC2)cc1F [Example 213, N-[(1R,2S)-1-(3-fluoro-4-methyl-phenyl)-1-[1-(4-fluorophenyl)indazol-5-yl]oxy-propan-2-yl]-1-methyl-cyclopropane-1-carboxamide]
4.5 nM | C[C@H](NC(=O)C1(C)CC1)[C@H](Oc1ccc2c(cnn2-c2ccc(F)cc2)c1)c1cccc(F)c1 [Example 214, N-[(1R,2S)-1-(3-fluorophenyl)-1-[1-(4-fluorophenyl)indazol-5-yl]oxy-propan-2-yl]-1-methyl-cyclopropane-1-carboxamide]
4.4 nM | Cc1ccc(C)c([C@@H](Oc2ccc3c(cnn3-c3ccc(F)cc3)c2)[C@H](C)NC(=O)C2(C)CC2)c1 [Example 215, N-[(1R,2S)-1-(2,5-dimethylphenyl)-1-[1-(4-fluorophenyl)indazol-5-yl]oxy-propan-2-yl]-1-methyl-cyclopropane-1-carboxamide]
3.9 nM | COc1ccc([C@@H](Oc2ccc3c(cnn3-c3ccc(F)cc3)c2)[C@H](C)NC(=O)C2(C)CC2)cc1F [Example 217, N-[(1R,2S)-1-(3-fluoro-4-methoxy-phenyl)-1-[1-(4-fluorophenyl)indazol-5-yl]oxy-propan-2-yl]-1-methyl-cyclopropane-1 carboxamide]
3.3 nM | C[C@H](NC(=O)C1(C)CC1)[C@H](Oc1ccc2c(cnn2-c2ccc(F)cc2)c1)c1cccc(Cl)c1 [Example 218, N-[(1R,2S)-1-(3-chlorophenyl)-1-[1-(4-fluorophenyl)indazol-5-yl]oxy-propan-2-yl]-1-methyl-cyclopropane-1-carboxamide]
2.8 nM | Cc1cc(F)ccc1[C@@H](Oc1ccc2c(cnn2-c2ccc(F)cc2)c1)[C@H](C)NC(=O)C1(C)CC1 [Example 219, N-[(1R,2S)-1-(4-fluoro-2-methyl-phenyl)-1-[1-(4-fluorophenyl)indazol-5-yl]oxy-propan-2-yl]-1-methyl-cyclopropane-1-carboxamide]
4.2 nM | Cc1ccc(F)cc1[C@@H](Oc1ccc2c(cnn2-c2ccc(F)cc2)c1)[C@H](C)NC(=O)C1(C)CC1 [Example 220, N-[(1R,2S)-1-(5-fluoro-2-methyl-phenyl)-1-[1-(4-fluorophenyl)indazol-5-yl]oxy-propan-2-yl]-1-methyl-cyclopropane-1-carboxamide]
4.4 nM | COc1c(C)cc([C@@H](Oc2ccc3c(cnn3-c3ccc(F)cc3)c2)[C@H](C)NC(=O)C2(C)CC2)cc1C [Example 221, N-[(1R,2S)-1-[1-(4-fluorophenyl)indazol-5-yl]oxy-1-(4-methoxy-3,5-dimethyl-phenyl)propan-2-yl]-1-methyl-cyclopropane-1-carboxamide]
3.5 nM | C[C@H](NC(=O)C1(C)CC1)[C@H](Oc1ccc2c(cnn2-c2ccc(F)cc2)c1)c1ccc(Cl)cc1 [Example 222, N-[(1R,2S)-1-(4-chlorophenyl)-1-[1-(4-fluorophenyl)indazol-5-yl]oxy-propan-2-yl]-1-methyl-cyclopropane-1-carboxamide]
3.9 nM | C[C@H](NC(=O)C1(C)CC1)[C@H](Oc1ccc2c(cnn2-c2ccc(F)cc2)c1)c1cc(F)cc(Cl)c1 [Example 223, N-[(1R,2S)-1-(3-chloro-5-fluoro-phenyl)-1-[1-(4-fluorophenyl)indazol-5-yl]oxy-propan-2-yl]-1-methyl-cyclopropane-1-carboxamide]
